Measurements taken from BindingDB's records for doi:10.1021/jm00394a022 (Pennsylvania State University, 1987).

Assays:
[1] = target: Glutamine synthetase (Pisum sativum); experiment: Compound was evaluated for binding affinity by the inhibition of Glutamine synthetase (Pea seed) activity using biosynthetic assay [noncompetitive inhibition]
[2] = target: Glutamine synthetase (Ovis aries); experiment: Compound was evaluated for binding affinity by the inhibition of Glutamine synthetase (Ovine brain) activity using biosynthetic assay [competitive inhibition]
[3] = target: Glutamine synthetase (Escherichia coli) (UniProt P0A9C5); experiment: Compound was evaluated for binding affinity by the inhibition of Glutamine synthetase (Escherichia coli) activity using biosynthetic assay [mixed Non-competitive inhibition]
Sequence of Glutamine synthetase (Escherichia coli) (P0A9C5 whole entry, looked up): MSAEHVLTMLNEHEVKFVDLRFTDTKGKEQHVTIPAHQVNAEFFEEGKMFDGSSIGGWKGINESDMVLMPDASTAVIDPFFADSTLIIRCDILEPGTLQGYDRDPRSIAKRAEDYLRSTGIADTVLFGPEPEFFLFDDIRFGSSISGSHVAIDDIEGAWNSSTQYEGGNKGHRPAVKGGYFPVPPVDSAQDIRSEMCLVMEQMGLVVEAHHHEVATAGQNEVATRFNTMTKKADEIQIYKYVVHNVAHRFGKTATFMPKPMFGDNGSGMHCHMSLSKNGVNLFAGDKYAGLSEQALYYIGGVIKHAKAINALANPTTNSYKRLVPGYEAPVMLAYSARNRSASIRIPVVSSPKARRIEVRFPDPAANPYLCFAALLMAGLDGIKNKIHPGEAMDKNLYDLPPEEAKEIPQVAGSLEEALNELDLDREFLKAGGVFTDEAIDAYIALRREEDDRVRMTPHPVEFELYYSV

Ki [1]: 250 µM | Ki [2]: 750 µM | Ki [3]: 75 µM
Structure (SMILES): NC(CCP(=O)(O)CP(=O)(O)O)C(=O)O (stereo not drawn) [2-ammonio-4-[hydroxy(phosphonomethyl)phosphoryl]butanoate]
